± gives the expanded uncertainty stated by the source.
Conditions: Liquid

CCCCCCCCO [octan-1-ol]
Conditions	mass density [kg/m3]
313.14 K, 1004 kPa	811.26 ± 0.59
313.14 K, 2019 kPa	811.95 ± 0.61
313.14 K, 3000 kPa	812.59 ± 0.63
313.14 K, 4020 kPa	813.22 ± 0.65
313.14 K, 4995 kPa	813.89 ± 0.67
313.14 K, 6000 kPa	814.53 ± 0.69
313.14 K, 7007 kPa	815.21 ± 0.71
313.14 K, 8012 kPa	815.83 ± 0.73
313.14 K, 8994 kPa	816.51 ± 0.75
313.14 K, 10014 kPa	817.19 ± 0.77
313.14 K, 11007 kPa	817.79 ± 0.79
313.14 K, 12000 kPa	818.42 ± 0.81
313.14 K, 12997 kPa	819.05 ± 0.83
313.14 K, 14001 kPa	819.67 ± 0.86
313.14 K, 14997 kPa	820.27 ± 0.88
313.14 K, 16002 kPa	820.89 ± 0.9
313.14 K, 17001 kPa	821.48 ± 0.92
313.14 K, 17997 kPa	822.1 ± 0.94
313.14 K, 19004 kPa	822.69 ± 0.96
313.14 K, 20007 kPa	823.28 ± 0.98
313.14 K, 21004 kPa	823.86 ± 1
323.09 K, 1007 kPa	804.26 ± 0.6
323.09 K, 2016 kPa	804.97 ± 0.62
323.09 K, 3019 kPa	805.7 ± 0.64
323.09 K, 4025 kPa	806.4 ± 0.66
323.09 K, 5012 kPa	807.07 ± 0.68
323.09 K, 6093 kPa	807.82 ± 0.71
323.09 K, 7143 kPa	808.56 ± 0.73
323.09 K, 8009 kPa	809.12 ± 0.75
323.09 K, 8989 kPa	809.77 ± 0.77
323.09 K, 10014 kPa	810.47 ± 0.79
323.09 K, 11031 kPa	811.14 ± 0.81
323.09 K, 12010 kPa	811.82 ± 0.83
323.09 K, 13005 kPa	812.44 ± 0.85
323.09 K, 14003 kPa	813.11 ± 0.87
323.09 K, 15012 kPa	813.76 ± 0.9
323.09 K, 16009 kPa	814.4 ± 0.92
323.09 K, 17005 kPa	815.04 ± 0.94
323.09 K, 18013 kPa	815.66 ± 0.96
323.09 K, 19003 kPa	816.26 ± 0.98
323.09 K, 20025 kPa	816.9 ± 1
323.09 K, 21081 kPa	817.56 ± 1
323.09 K, 22009 kPa	818.09 ± 1.1
333.05 K, 1038 kPa	797.31 ± 0.61
333.05 K, 2029 kPa	798.03 ± 0.63
333.05 K, 2999 kPa	798.76 ± 0.65
333.05 K, 4033 kPa	799.51 ± 0.67
333.05 K, 5020 kPa	800.25 ± 0.69
333.05 K, 6014 kPa	800.97 ± 0.72
333.05 K, 7029 kPa	801.69 ± 0.74
333.05 K, 8011 kPa	802.44 ± 0.76
333.05 K, 9005 kPa	803.11 ± 0.78
333.05 K, 10022 kPa	803.83 ± 0.81
333.05 K, 11011 kPa	804.55 ± 0.83
333.05 K, 12021 kPa	805.23 ± 0.85
333.05 K, 13022 kPa	805.92 ± 0.87
333.05 K, 14031 kPa	806.61 ± 0.89
333.05 K, 15010 kPa	807.28 ± 0.92
333.05 K, 16023 kPa	807.92 ± 0.94
333.05 K, 17012 kPa	808.59 ± 0.96
333.05 K, 18035 kPa	809.23 ± 0.99
333.05 K, 19009 kPa	809.87 ± 1
333.05 K, 20002 kPa	810.51 ± 1
333.05 K, 21011 kPa	811.15 ± 1.1
333.05 K, 22019 kPa	811.82 ± 1.1
343.03 K, 1049 kPa	790.6 ± 0.62
343.03 K, 2003 kPa	791.16 ± 0.64
343.03 K, 2981 kPa	791.93 ± 0.66
343.03 K, 4017 kPa	792.68 ± 0.68
343.03 K, 5000 kPa	793.37 ± 0.71
343.03 K, 6005 kPa	794.05 ± 0.73
343.03 K, 7018 kPa	794.88 ± 0.75
343.03 K, 8104 kPa	795.68 ± 0.78
343.03 K, 9014 kPa	796.44 ± 0.8
343.03 K, 10022 kPa	797.1 ± 0.82
343.03 K, 11028 kPa	797.87 ± 0.84
343.03 K, 11997 kPa	798.58 ± 0.87
343.03 K, 13030 kPa	799.3 ± 0.89
343.03 K, 14005 kPa	800 ± 0.91
343.03 K, 15002 kPa	800.66 ± 0.94
343.03 K, 16032 kPa	801.38 ± 0.96
343.03 K, 17016 kPa	801.99 ± 0.99
343.03 K, 18012 kPa	802.68 ± 1
343.03 K, 19005 kPa	803.29 ± 1
343.03 K, 20018 kPa	803.98 ± 1.1
343.03 K, 21014 kPa	804.61 ± 1.1
343.03 K, 22004 kPa	805.23 ± 1.1
352.89 K, 1023 kPa	782.71 ± 0.63
352.89 K, 2011 kPa	783.55 ± 0.65
352.89 K, 3032 kPa	784.42 ± 0.67
352.89 K, 4022 kPa	785.42 ± 0.7
352.89 K, 5005 kPa	786.18 ± 0.72
352.89 K, 6026 kPa	787.13 ± 0.74
352.89 K, 7003 kPa	787.9 ± 0.77
352.89 K, 8016 kPa	788.71 ± 0.79
352.89 K, 9007 kPa	789.47 ± 0.81
352.89 K, 10003 kPa	790.22 ± 0.84
352.89 K, 11022 kPa	791 ± 0.86
352.89 K, 12170 kPa	791.78 ± 0.89
352.89 K, 13015 kPa	792.51 ± 0.91
352.89 K, 14018 kPa	793.24 ± 0.94
352.89 K, 15009 kPa	794 ± 0.96
352.89 K, 16023 kPa	794.74 ± 0.98
352.89 K, 17010 kPa	795.48 ± 1
352.89 K, 18002 kPa	796.16 ± 1
352.89 K, 19029 kPa	796.9 ± 1.1
352.89 K, 20046 kPa	797.63 ± 1.1
352.89 K, 21023 kPa	798.3 ± 1.1
362.77 K, 1051 kPa	775.67 ± 0.64
362.77 K, 2025 kPa	776.41 ± 0.66
362.77 K, 3016 kPa	777.19 ± 0.68
362.77 K, 4009 kPa	778.05 ± 0.71
362.77 K, 4974 kPa	778.77 ± 0.73
362.77 K, 6005 kPa	779.51 ± 0.76
362.77 K, 7006 kPa	780.3 ± 0.78
362.77 K, 8011 kPa	780.95 ± 0.81
362.77 K, 9008 kPa	781.79 ± 0.83
362.77 K, 10034 kPa	782.62 ± 0.86
362.77 K, 11013 kPa	783.32 ± 0.88
362.77 K, 11987 kPa	784.03 ± 0.91
362.77 K, 13015 kPa	784.77 ± 0.93
362.77 K, 14006 kPa	785.51 ± 0.96
362.77 K, 14997 kPa	786.3 ± 0.98
362.77 K, 16001 kPa	787.03 ± 1
362.77 K, 17013 kPa	787.79 ± 1
362.77 K, 17997 kPa	788.55 ± 1.1
362.77 K, 19000 kPa	789.33 ± 1.1
362.77 K, 20023 kPa	790.04 ± 1.1
362.77 K, 21004 kPa	790.83 ± 1.2
